Consider one compound from patent US20180228743A1, “COMPOUNDS AND METHODS OF PROMOTING MYELINATION” (Case Western Reserve University, priority 2016, published 2018).

The subject of series [1] is human induced pluripotent stem cell-derived cortical spheroids. The series is described as follows: GC/MS sterol profiling in human cortical spheroids. The format is cell-based. The conditions noted are these: 2 μM, 24 h.
The test system of the next series is EpiSC-derived OPCs. The series can be described thus: High-throughput screening of 3,000 bioactive small molecules for MBP+ oligodendrocyte formation from OPCs. The series is classed as cell-based, mouse. The conditions noted are these: 2 μM, 72 h. From the text: Plates were imaged on the Operetta High Content Imaging and Analysis system (PerkinElmer) and a set of 6 fields captured from each well resulting in an average of 1200 cells being scored per well. Analysis (PerkinElmer Harmony and Columbus software) began by identifying intact nuclei stained by DAPI; that is, those traced nuclei that were larger than 300 μm^2 in surface area. Each traced nucleus region was then expanded by 50% and cross-referenced with the […] (MBP) stain to identify oligodendrocyte nuclei, and from this the percentage of oligodendrocytes was calculated. In some experiments, the total process length of MBP+ oligodendrocytes was calculated as previously described.
EpiSC-derived OPCs were grown and expanded in poly-ornithine and laminin-coated flasks before harvesting for plating. Cells were dispensed in differentiation media supplemented with Noggin (R&D Systems; 100 ng/ml), Neurotrophin 3 (R&D Systems; 10 ng/ml), cAMP (Sigma; 50 μM), and IGF-1 (R&D Systems; 100 ng/ml)) using a Biotek EL406 Microplate Washer Dispenser (Biotek) equipped with 5 μL dispense cassette (Biotek), into poly-D-lysine/laminin (Sigma, L2020; 4 μg/ml)-coated sterile, 384-well, CellCarrier ultra plates (PerkinElmer), to a final density of 12,500 cells per well and allowed to attach for 45 min before addition of drug. A 3 mM stock of bioactive compound library in dimethylsulphoxide (DMSO) were prepared in an Abgene storage 384-well plate (ThermoFisher Scientific; AB1055). These were added to assay plates using a 50 nL solid pin tool attached to Janus automated workstation (Perkin Elmer), resulting in a final screening concentration of 2 μM. Cells were incubated at 37° C. for 1 hour and then T3 (Sigma; 40 ng/ml) was added to all wells except negative controls, to which FGF (20 ng/ml) was added instead. Negative controls and T3-alone were included in each assay plate. After incubation at 37° C. for 72 h, cells were fixed, washed and stained similar to 96-well OPC assay protocol, although all the washing steps were performed using a Biotek EL406 Microplate Washer Dispenser (Biotek) equipped with a 96-well aspiration manifold. Cells were stained with DAPI (Sigma; 1 μg/ml) and MBP antibody (Abcam, ab7349; 1:100). Plates were imaged on the Operetta High Content Imaging and Analysis system (PerkinElmer) and a set of 4 fields captured from each well resulting in an average of 700 cells being scored per well. Analysis was performed as in High-Content Imaging and Analysis, above. All plates for the primary screen were processed and analyzed simultaneously to minimize variability. Molecules causing more than 20% reduction in nuclear count relative to DMSO control wells were removed from consideration, and hits were called on the basis of largest fold-increase in percentage of MBP+ oligodendrocytes relative to DMSO controls within the same plate.

For series [2], the system named is human glioma cells (GBM528). The series is described as follows: GC/MS sterol profiling in human glioma cell line. The conditions noted are these: 24 h. The format is cell-based.
A further series concerns LPC-lesioned spinal cord. The series can be described thus: LPC focal demyelination of spinal cord, remyelination histology. The conditions noted are these: ifenprodil 10 mg per kg, tamoxifen 2 mg per kg, daily intraperitoneal, 8 days from day 4 after lesion. The series is classed as in vivo, mouse.
Another series has as its system mouse brain. The series can be described thus: Analysis of mouse brain sterol levels (GC/MS). The format is in vivo. The conditions noted are these: miconazole 10 mg per kg, ifenprodil 10 mg per kg, tamoxifen 2 mg per kg; 3 days intraperitoneal dosing.
The conditions of series [3]: mouse; cited from earlier work.

Structures can show the parent of a compound that is named as a salt.

Experimental for mouse brain: Mice were anaesthetized with isoflurane and perfused with phosphate buffered saline to remove blood from the brain. Brains were collected and flash frozen using liquid nitrogen. The samples were pulverized and 50-100 milligrams of tissue were collected for further processing. A modified Folch protocol was used for extraction of sterols. Briefly, samples were resuspended in a 2:1 chloroform/methanol mixture and homogenized. Cell debris was removed by centrifugation at 4000 g for 10 min. The solution was dried under air and resuspended in hexane with a cholesterol-D7 standard and dried again. Lipids were derivatized with 70 al of bis(trimethylsilyl)trifluoroacetamide; 2 μls were injected and analyzed by GC/MS as described above.

For `CC(C(O)c1ccc(O)cc1)N1CCC(Cc2ccccc2)CC1` (centres unmarked) [lfenprodil Tartrate], the “8,9-unsaturated sterol accumulation in human cortical spheroids” value in series [1] is given as “led to 8,9-unsaturated sterol accumulation”. The results for the “cell viability (% relative to DMS0)” value with EpiSC-derived OPCs and in the series with EpiSC-derived OPCs (listed as lfenprodil tartrate) were 103.79% and 106.02%, respectively. Further, in the series on EpiSC-derived OPCs (Mus musculus, relative to DMSO controls of the same plate, read-out: fold-change in % MBP + oligodendrocytes), the fold induction at 2 µM amounted to 4.89. Moreover, in series [2], the “sterol intermediate accumulation in human glioma cell line” value is “caused accumulation of the expected sterol intermediates”. In addition, the “remyelination of LPC lesion” value with LPC-lesioned spinal cord was “remyelination was widespread throughout the lesion”. Moreover, the “accumulation of 8,9-unsaturated sterols in brain” value with mouse brain is “induced significant accumulation of 8,9-unsaturated sterols in the brain”. Also, in series [3], the “blood brain barrier penetration” value is “known to cross the mouse blood brain barrier”.
